Source: publication PMC3519527, “Compounds from Sorindeia juglandifolia (Anacardiaceae) exhibit potent anti-plasmodial activities in vitro and in vivo” (Malaria Journal, 2012)
“And” between values parts separate entries of the source, which are not always exact repeats. Equal entries are not always repeated. Structures can show the parent of a compound that is named as a salt. Where two headings read alike, the source gives them in different places.

Key:
[1] = system: Plasmodium falciparum chloroquine-resistant strain W2; experiment: In vitro screening against Plasmodium falciparum W2 (flow cytometry, 48 h); assay type: cell-based; details: read-out: P. falciparum W2 IC50±SD
Method: Plasmodium falciparum strain W2, known to be resistant to chloroquine and other anti-malarials, was cultured in sealed flasks at 37°C, in a 3% O2, […] and 91% N2 atmosphere in RPMI 1640, 25 mM HEPES, pH 7.4, supplemented with heat inactivated 10% human serum and human erythrocytes to achieve a 2% haematocrit. Serum and erythrocytes were purified from blood voluntarily given by adults with no recent contact with malaria, and who have signed an informed consent form. Parasites were synchronized in the ring stage by serial treatment with 5% sorbitol (Sigma) and tested at 1% parasitaemia. Stock solutions of plant extracts were prepared as 1 mg/ml in DMSO, diluted as needed for individual experiments, and tested in triplicate as described previously. The stock solutions were diluted in supplemented RPMI 1640 medium so as to have at most 0.2% DMSO in the final reaction medium. Equal volumes (100μl) of inhibitors and 1% parasitaemia, 4% haematocrit culture were then added and gently mixed thoroughly. Negative controls contained equal concentrations of DMSO. Positive controls contained 1 μM chloroquine phosphate (Sigma). Cultures were incubated at 37°C for 48 h. Parasites at the ring stage were thereafter fixed by replacing the serum medium by an equal volume of 1% formaldehyde in PBS. Aliquots (5 μl) of each culture were then added to round-bottom polystyrene 96 well plates containing 150 μl of 100 mM NH4Cl, 0.1% Triton X- 100 and 1 nM YOYO-1 nuclear dye (Molecular Probes) in PBS, and the parasitaemia of treated and control cultures were compared using a Becton-Dickinson FACSort flow cytometer equipped with AMS-1 loader (Cytek Development) to count nucleated (parasitized) erythrocytes. Data acquisition was performed using Cell Quest software.

[2] = system: P. falciparum field isolates; experiment: In vitro screening against Plasmodium falciparum field isolates (Giemsa smears, 48 h); assay type: cell-based
Method: Plasmodium falciparum isolates were prepared as described previously. Blood was collected from outpatients presenting at the Etoug-Ebe Baptist Health Centre in Yaoundé with uncomplicated malaria. Patients older than five years of age with mono infection with P. falciparum and parasite density greater than 6,000 asexual parasites per microliter of blood were considered for inclusion in the study. Those with recent history of self-medication with anti-malarial drugs were excluded. After patients agreed to participate in the study and signed the consent form, 5 mL of blood was collected from them by venipuncture into heparinized tubes. The blood was centrifuged at 3,000 rpm for 15 min and the supernatant discarded. The pellets were suspended in 10 mL of pre-warmed RPMI 1640 medium and centrifuged again twice at 3,000 rpm for 5 min, and the supernatant was then discarded. The volume of the packed-cells was estimated and mixed with an equal amount of RPMI 1640, 25 mM HEPES, pH 7.4, and subsequently used at 4% haematocrit for experiments. Thin smears were evaluated to assess the parasitaemia, the developmental stages of parasites, and the colour, shape and size of red blood cells. Nine such isolates were prepared and subsequently used for experiments.
The activity of plant products was assessed as previously described. […] Stock solutions of plant extracts were prepared at 1 mg/ml in DMSO and diluted as needed for individual experiments in 96-well plates using RPMI 1640, to achieve a maximum final DMSO concentration of 0.2%. Chloroquine was used as positive control at 1 μM, and the negative control was an equal concentration of DMSO. To assess the susceptibility of parasites to drugs, they were maintained in RPMI 1640 supplemented with 25 mM HEPES buffer (pH 7.4), 0.05% ampicillin, and 10% AB+ human serum at 37°C, in a candle jar. To achieve this, 200 μl parasite suspensions at 4% haematocrit and 0.1%– 0.3% parasitaemia were added to 50 μl of each concentration of inhibitor in individual wells, each tested in triplicate. Cultures were incubated at 37°C for 48 h in a candle jar. To estimate the effects of inhibitors after 48 h, thin smears from treated and control cultures were fixed in methanol for 30 s, stained using fresh 5% Giemsa solution (Sigma) in phosphate buffer (pH 7.1), and examined by counting the parasitaemia per 100 erythrocytes. IC50s were calculated from curves plotting percent growth versus drug concentration using Prism 5.0 software with data fitted by nonlinear regression to the variable slope sigmoidal dose–response formula y = 100/[1 + 10^(logIC50− x)H, where H is the Hill coefficient or slope factor [5].

[3] = target: T1, recombinant falcipain-2 (Plasmodium falciparum, UniProt Q8I6U4); experiment: Falcipain-2 inhibition (Z-Leu-Arg-AMC hydrolysis); assay type: biochemical; details: recombinant enzyme, pH 5.5, triplicate; for IC50: read-out: Falcipain-2 IC50±SD
T1 construct: made in house
T1 sequence (Q8I6U4 244-484): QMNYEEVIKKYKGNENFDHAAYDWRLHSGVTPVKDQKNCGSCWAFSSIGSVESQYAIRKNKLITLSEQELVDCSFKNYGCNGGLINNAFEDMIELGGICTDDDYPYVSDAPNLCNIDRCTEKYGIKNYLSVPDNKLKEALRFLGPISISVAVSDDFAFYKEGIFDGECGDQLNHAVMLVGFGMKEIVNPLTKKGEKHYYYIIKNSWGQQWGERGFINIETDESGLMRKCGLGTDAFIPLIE
Method: Falcipain-2 activity was measured as hydrolysis of the fluorogenic substrate benzyloxycarbonyl-Leu-Arg-7-amino-4-methyl-coumarin (Z-Leu-Arg-AMC) using a Fluoroskan II spectrofluorometer, as described previously. For inhibitor assays, recombinant falcipain-2 prepared as described previously was incubated with inhibitors (added from stocks concentrated 100- to 1,000-fold in dimethyl sulfoxide [DMSO]) with 10 mM dithiothreitol, pH 5.5, for 30 min at room temperature before the substrate (50 μM) was added. Equal concentrations of enzyme were used for each experiment. Multiple inhibitor concentrations were studied in triplicate, and the rates of hydrolysis were determined and compared to those of controls containing equal concentrations of DMSO. All values were normalized to the control activity, and IC50s were calculated with the Prism 5.0 program, with data fitted by nonlinear regression.

[4] = system: Plasmodium berghei strain B; experiment: In vivo curative test in mice; set-up: species or system Plasmodium berghei in Swiss albino mice
Method: (§1) Compound 1 (2,3,6-trihydroxy benzoic acid), obtained from the fractionation of S.juglandifolia extract, was assessed in vivo using the Plasmodium berghei rodent parasite model, according to the procedure described by Okokon et al.[12] with a few modifications. Plasmodium berghei strain B (MRA-406, MR4, ATCC® Manassas Virginia) was obtained from BEI Resources and used for the experiments. Female Swiss albino mice aged eight weeks and weighing ~20 g were used for efficacy and toxicity experiments. These animals were bred in the animal house of the Faculty of Medicine, University of Yaoundé I. They were fed a standard laboratory diet (S.P.C. Ltd., Bafoussam, Cameroon) and given clean tap water ad libitum. Animal welfare requirements were strictly considered during the experiments, as described in the protocol approved by the National Ethics Committee (Reg. No.FWAIRB00001954). To start infections, a cryotube of parasites was thawed and the undiluted contents were injected immediately i.p. into naïve recipient mice. Three days after infection, the parasitaemia was evaluated daily in tail vein blood through Giemsa-stained thin smear observation under oil immersion at 100X magnification. Passage of infection into new mice consisted of an i.p. injection of 200 μL of 10^6 infected erythrocytes/mL sterile PBS. The test compound was dissolved and diluted in Tween 20: Ethanol (7:3 v/v).
(§2) Curative assays were subsequently conducted using the same setting, with animal receiving drug at daily oral dosages of 10, 30, 50 and 100 mg/kg for 5 consecutive days, starting day 3 (72 hours) after infection. Thin blood smears were made daily from the tail blood of mice and the level of parasitaemia assessed by examination of Giemsa-stained smears using a microscope at 100X magnification.

[5] = system: Plasmodium berghei strain B; experiment: In vivo suppressive test in mice; set-up: species or system Plasmodium berghei in Swiss albino mice; details: for SD50 (suppressive dose at 50%): oral, parasitaemia 24 h after last dose
Method: as §1
Preliminary screening of the compound consisted of a suppressive test. To achieve this, animals were infected i.p. with 200 μL of 10^6 infected erythrocytes/mL sterile PBS. Four hours after infection, duplicate batches of animals were treated as follows: four batches of six mice each were given test drug orally at respective dosages of 10, 30, 50 and 100 mg/kg, and subsequently once daily for four consecutive days. Negative controls consisted of one batch of 6 infected mice receiving no drug (dose 0), and one batch of six uninfected animals. Positive controls consisted of one batch of infected mice receiving quinine sulfate at 24 mg/kg.
as §2

[6] = Plasmodium falciparum, W2, 48 h, W2 strain, 48 h, triplicate
[7] = Plasmodium falciparum, isolate E01, read-out: IC50±SD
[8] = Plasmodium falciparum, isolate E02, read-out: IC50±SD
[9] = Plasmodium falciparum, isolate E03, read-out: IC50±SD
[10] = Plasmodium falciparum, isolate E04, read-out: IC50±SD
[11] = Plasmodium falciparum, isolate E05, read-out: IC50±SD
[12] = Plasmodium falciparum, isolate E06, read-out: IC50±SD
[13] = Plasmodium falciparum, isolate E07, read-out: IC50±SD
[14] = Plasmodium falciparum, isolate E08, read-out: IC50±SD
[15] = Plasmodium falciparum, isolate E09, read-out: IC50±SD

Compound C[C@@H]1CC[C@H]2[C@@H](C)C(=O)O[C@@H]3O[C@@]4(C)CC[C@@H]1[C@]32OO4 [ART, artemisinin, reference compound] has an IC50 [1, 6] of 0.007 ± 0.01 µg/mL.

Compound CCN(CC)CCCC(C)Nc1ccnc2cc(Cl)ccc12 (centres unmarked) [CQ, chloroquine, reference compound] has an IC50 ([2]; Plasmodium falciparum, read-out: IC50 against P. falciparum isolates, span over the nine field isolates) of 0.0166 to 0.0384 µg/mL, an IC50 ([2]; Plasmodium falciparum, read-out: IC50±SD, isolate E01) of 0.0254 ± 0.00347 µg/mL and an IC50 ([2]; Plasmodium falciparum, read-out: IC50±SD, isolate E02) of 0.0233 ± 0.019 µg/mL. For the same compound, the IC50 ([2]; Plasmodium falciparum, read-out: IC50±SD, isolate E03) was 0.0384 ± 0.00437 µg/mL, the IC50 ([2]; Plasmodium falciparum, read-out: IC50±SD, isolate E04) was 0.0272 ± 0.00072 µg/mL and the IC50 ([2]; Plasmodium falciparum, read-out: IC50±SD, isolate E05) was 0.0166 ± 0.00148 µg/mL. For the same compound, the IC50 ([2]; Plasmodium falciparum, read-out: IC50±SD, isolate E06) was 0.0192 ± 0.00486 µg/mL, the IC50 ([2]; Plasmodium falciparum, read-out: IC50±SD, isolate E07) was 0.0243 ± 0.00332 µg/mL and the IC50 ([2]; Plasmodium falciparum, read-out: IC50±SD, isolate E08) was 0.0187 ± 0.00094 µg/mL. The IC50 ([2]; Plasmodium falciparum, read-out: IC50±SD, isolate E09) was 0.0188 ± 0.00187 µg/mL and the IC50 ([1]; Plasmodium falciparum, W2, 48 h) was 0.05 ± 0.01 µg/mL.

In the case of O=C(O)c1c(O)ccc(O)c1O [Compound 1, 2,3,6-trihydroxy benzoic acid], the IC50 [3] is reported as 35.4 µM, the melting point is reported as 188.5 to 190 °C and the “Mean % Suppression/Inhibition” value ([4]; 10 mg/kg oral daily for 5 days from day 3) is reported as 20.95%. The “Mean % Suppression/Inhibition” value ([4]; 30 mg/kg oral daily for 5 days from day 3) was 41.00%, the “Mean % Suppression/Inhibition” value ([4]; 50 mg/kg oral daily for 5 days from day 3) was 57.27% and the “Mean % Suppression/Inhibition” value ([4]; 100 mg/kg oral daily for 5 days from day 3) was 66.40%. For the same compound, the ED50 ([4]; Plasmodium berghei, oral, parasitaemia 24 h after last dose, read-out: ED50 (effective dose at 50%)) was 42.2 mg/kg, the IC50 [2, 7] was 11.3 ± 0.92 µM and the IC50 [2, 8] was 17.1 ± 0.48 µM. The IC50 [2, 9] was 22 ± 0.93 µM, the IC50 [2, 10] was 24.8 ± 1.04 µM and the IC50 [2, 11] was 6.32 ± 0.16 µM. It also gave an IC50 [2, 12] of 36.1 ± 2.01 µM, an IC50 [2, 13] of 33.7 ± 0.61 µM and an IC50 [2, 14] of 9.92 ± 4.82 µM. The IC50 [2, 15] was 19.77 ± 0.14 µM, the IC50 ([2]; Plasmodium falciparum, span over the nine field isolates, read-out: IC50 against P. falciparum isolates) was 6.3 µM and the IC50 ([2]; span over the nine field isolates, read-out: IC50 against P. falciparum isolates) was 6.3 to 36.1 µM. For the same compound, the IC50 [1, 6] was 16.5 µM, the IC50 ([1]; W2 strain, 48 h, triplicate, listed as 2,3,6-trihydroxy benzoic acid (1)) was 16.5 ± 0.47 µM and the “Mean % Suppression/Inhibition” value ([5]; 10 mg/kg oral, once daily, 24 h after last dose) was 22.73%. For the same compound, the “Mean % Suppression/Inhibition” value ([5]; 30 mg/kg oral, once daily, 24 h after last dose) was 35.95%, the “Mean % Suppression/Inhibition” value ([5]; 50 mg/kg oral, once daily, 24 h after last dose) was 53.66% and the “Mean % Suppression/Inhibition” value ([5]; 100 mg/kg oral, once daily, 24 h after last dose) was 69.63%. For the same compound, the “SD50 (suppressive dose at 50%)” value [5] was 44.9 mg/kg and 44.9 ± 1.6 mg/kg and the “SD50 (suppressive dose at 50%)” value ([5]; listed as 2,3,6-trihydroxy benzoic acid (1)) was “^cSD50 = 44.9 ± 1.6 mg/kg”.

With COC(=O)c1c(O)ccc(O)c1O [Compound 2, 2,3,6-trihydroxy methyl benzoate] the IC50 [3] was 6.1 µM and 6.09 µM, the IC50 [2, 7] was 7.02 ± 0.07 µM and the IC50 [2, 8] was 14.7 ± 0.15 µM. For the same compound, the IC50 [2, 9] was 19.8 ± 0.38 µM, the IC50 [2, 10] was 18.8 ± 1.04 µM and the IC50 [2, 11] was 12.2 ± 0.02 µM. For the same compound, the IC50 [2, 12] was 23.1 ± 2.01 µM, the IC50 [2, 13] was 26.69 ± 0.02 µM and the IC50 [2, 14] was 13.3 ± 1.85 µM. It also gave an IC50 [2, 15] of 24.4 ± 0.05 µM, an IC50 [1, 6] of 13 µM and an IC50 ([1]; W2 strain, 48 h, triplicate, listed as 2,3,6-trihydroxy methyl benzoate (2)) of 13 ± 1.63 µM.

In the case of CC(C)C[C@H](NC(=O)[C@H]1O[C@@H]1C(=O)O)C(=O)NCCCCN=C(N)N [Compound E64, l-transepoxy-succinyl-leucylamido-(4-guanidino)-butane, reference compound], the “Falcipain-2 IC50±SD” value [3] is reported as 0.049 ± 0.003 µg/mL.

In the case of C=C[C@H]1C[N@@]2CC[C@H]1C[C@H]2[C@H](O)c1ccnc2ccc(OC)cc12 [Quinine sulfate, quinine sulfate, reference compound], the “Mean % Suppression/Inhibition” value ([4]; 24 mg/kg, positive control) is reported as 89.50% and the “Mean % Suppression/Inhibition” value ([5]; 24 mg/kg, positive control) is reported as 71.34%.
